From article PMC4354462, “Design, Characterization, and First-In-Human Study of the Vascular Actions of a Novel Biased Apelin Receptor Agonist” (Hypertension, 2015)
Positions of bridges follow the written chain, without caps; N, C: chain ends. Residues, ends and D or L forms follow the SMILES beside them.

Assays:
human apelin receptor [1] = biological target: T1, human apelin receptor (Homo sapiens, UniProt P35414); experiment: Competition binding in CHO-K1-APJ cells; details: competition for [Glp65,Nle75,Tyr77][125I]apelin-13 binding; human apelin receptors in CHO-K1 cells
T1 sequence (P35414 1-380): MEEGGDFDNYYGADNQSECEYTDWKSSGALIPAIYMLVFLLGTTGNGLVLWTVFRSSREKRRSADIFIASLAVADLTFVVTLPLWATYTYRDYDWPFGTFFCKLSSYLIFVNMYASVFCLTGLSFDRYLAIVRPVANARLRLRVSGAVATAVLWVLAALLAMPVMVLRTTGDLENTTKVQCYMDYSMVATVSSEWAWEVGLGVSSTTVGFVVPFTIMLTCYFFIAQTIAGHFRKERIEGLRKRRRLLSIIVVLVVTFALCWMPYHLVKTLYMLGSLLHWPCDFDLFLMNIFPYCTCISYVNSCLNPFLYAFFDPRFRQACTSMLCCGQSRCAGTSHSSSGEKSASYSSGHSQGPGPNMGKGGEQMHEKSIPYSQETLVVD
Procedure: Initial assays were performed in cells expressing the human apelin receptor (CHO-K1-APJ cells; Cerep, Celle L’Evescault, France). […] Data were analyzed (KELL package; Biosoft, UK) to obtain the dissociation constant KD (concentration of ligand occupying 50% of receptors).

human apelin receptor [2] = biological target: T1, human apelin receptor; experiment: Competition binding in homogenate of human left ventricle; details: competition for 0.1 nmol/L [Glp65,Nle75,Tyr77][125I]apelin-13; human heart (left ventricle homogenate); n=3
[3] = In vivo plasma half-life of apelin peptides; details: rat, iv
Source text: Rats (230–260 g), anaesthetized with 2% isoflurane, were given a single intravenous bolus (600 nmol) of apelin or MM07 (both n=3).

human hand vein = experiment: Aellig hand vein technique study in human volunteers; assay type: in vivo
Source text: All volunteers (n=12 forearm plethysmography, n=10 hand vein studies) gave written informed consent, and studies adhered to the principles of the Declaration of Helsinki and were approved by the National Research Ethics Service Committee East of England–Cambridge Central (REC 11/EE/0305).

male Wistar rats = experiment: Systemic infusions in anaesthetized rat (haemodynamics, echocardiography); assay type: in vivo
Procedure: Blood pressure (BP) was monitored continuously via an intra-arterial line and echocardiography was used after each bolus to determine changes in heart […], stroke volume, cardiac output (from peak velocity and velocity time interval) and respiratory rate. Rectal temperature was monitored throughout. BP was analyzed using absolute change in mean BP from the baseline taken just before the bolus and area under the curve analysis.

## CSCC[C@H](NC(=O)[C@@H]1CCCN1C(=O)CNC(=O)[C@H](CCCCN)NC(=O)[C@H](Cc1cnc[nH]1)NC(=O)[C@@H]1CSSC[C@H](N)C(=O)N[C@@H](CCCNC(=N)N)C(=O)N2CCC[C@H]2C(=O)N[C@@H](CCCNC(=N)N)C(=O)N[C@@H](CC(C)C)C(=O)N1)C(=O)N1CCC[C@H]1C(=O)N[C@@H](Cc1ccccc1)C(=O)O [MM07] (H-CRPRLCHKGPMPF-OH; disulfide 1-6)
Human apelin receptor [1]
  Kd: 300 nM
Human apelin receptor [2]
  Kd: 172 nM
[3]
  half-life: 17.4 ± 0.4 min
Human hand vein; human, in vivo
  adverse events in hand vein study: no adverse events observed

## CSCC[C@H](NC(=O)[C@@H]1CCCN1C(=O)CNC(=O)[C@H](CCCCN)NC(=O)[C@H](Cc1cnc[nH]1)NC(=O)[C@H](CO)NC(=O)[C@H](CC(C)C)NC(=O)[C@H](CCCNC(=N)N)NC(=O)[C@@H]1CCCN1C(=O)[C@H](CCCNC(=N)N)NC(=O)[C@@H]1CCC(=O)N1)C(=O)N1CCC[C@H]1C(=O)N[C@@H](Cc1ccccc1)C(=O)O [[Pyr^1]apelin-13, reference compound]
Male Wistar rats; incremental bolus doses 1-300 nmol
  respiratory rate: Neither peptide caused a significant change
Human hand vein; human volunteers
  adverse events in hand vein study: no adverse events observed

## CC(=O)NC(C(=O)O)C(C)(C)SN=O (racemic) [SNAP, S-Nitroso-N-acetyl-D,L-penicillamine]
Male Wistar rats; given after peptide doses, both peptide-treated groups
  BP response to SNAP: profound fall in BP
